Results reported in patent US9695155B2, “Herbicidal substituted pyrimidinyloxy benzene compounds” (E. I. DU PONT DE NEMOURS AND COMPANY, priority 2013, dated 2017).

Legend:
[1] = system: giant foxtail; assay: Test A postemergence; format: in vivo, Setaria faberii
Outline: (§1)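 Pre- and postemergence greenhouse screen. Soil: loam + sand. Spray carrier: solvent mixture, non-phytotoxic, with surfactant. Post timing at 1–2 leaves, height 2–10 cm. Readout: visual injury on a 0–100 scale roughly 10 days after application, untreated plants as reference.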

[2] = system: velvetleaf; assay: Test A preemergence; format: in vivo, Abutilon theophrasti
Outline: as §1

[3] = system: pigweed; assay: Test A preemergence; format: in vivo, Amaranthus retroflexus
Outline: as §1

[4] = system: morningglory; assay: Test A postemergence; format: in vivo, Ipomoea spp.
Outline: as §1

[5] = system: large (Lg) crabgrass; assay: Test A postemergence; format: in vivo, Digitaria sanguinalis
Outline: as §1

[6] = system: corn; assay: Test A postemergence; format: in vivo, Zea mays
Outline: as §1

[7] = system: barnyardgrass; assay: Test A preemergence; format: in vivo, Echinochloa crus-galli
Outline: as §1

[8] = system: pigweed; assay: Test A postemergence; format: in vivo, Amaranthus retroflexus
Outline: as §1

[9] = system: large (Lg) crabgrass; assay: Test C preemergence; format: in vivo, Digitaria sanguinalis; settings: for Crabgrass, Large plant response rating: preemergence; for Plant response rating, Crabgrass, Large: Preemergence, 31 g ai/ha, scale 0 to 100, 0 no effect, 100 complete control
Source text: (§2) Seeds of plant species selected from blackgrass (Alopecurus myosuroides), Italian ryegrass (Lolium multiflorum), wheat, winter (winter wheat, Triticum aestivum), galium (catchweed bedstraw, Galium aparine), corn (Zea mays), large (Lg) crabgrass (Digitaria sanguinalis), giant foxtail (Setaria faberii), johnsongrass (Sorghum halepense), lambsquarters (Chenopodium album), morningglory (Ipomoea coccinea), yellow nutsedge (Cyperus esculentus), pigweed (Amaranthus retroflexus), ragweed (common ragweed, Ambrosia elatior), soybean (Glycine max), barnyardgrass (Echinochloa crus-galli), oilseed rape (Brassica napus), waterhemp (common waterhemp, Amaranthus rudis), kochia (Kochia scoparia), wild oat (Avena fatua), surinam grass (Brachiaria decumbens), foxtail, green (green foxtail, Setaria viridis), goosegrass (Eleusine indica), bromegrass, downy (downy bromegrass, Bromus tectorum), nightshade (eastern black nightshade, Solanum ptycanthum), cocklebur (common cocklebur, Xanthium strumarium), cupgrass, woolly (woolly cupgrass, Eriochloa villosa), bermudagrass (Cynodon dactylon), sunflower, (common oilseed sunflower, Helianthus annuus), Russian thistle (Salsola kali), and velvetleaf (Abutilon theophrasti) were planted into a blend of loam soil and sand and treated preemergence with test chemicals formulated in a non-phytotoxic solvent mixture which included a surfactant.
(§3) At the same time, plants selected from these crop and weed species and also barley, winter (winter barley, Hordeum vulgare), windgrass (Apera spica-venti), chickweed (common chickweed, Stellaria media), deadnettle (henbit deadnettle, Lamium amplexicaule), and canarygrass (littleseed canarygrass, Phalaris minor) were planted in pots containing Redi-Earth® planting medium (Scotts Company, 14111 Scottslawn Road, Marysville, Ohio 43041) comprising spaghnum peat moss, vermiculite, wetting agent and starter nutrients and treated with postemergence applications of test chemicals formulated in the same manner. Plants ranged in height from 2 to 18 cm (1- to 4-leaf stage) for postemergence treatments. Treated plants and controls were maintained in a greenhouse for 13 to 15 days, after which time all species were compared to controls and visually evaluated. Plant response ratings, summarized in Table C, are based on a scale of 0 to 100 where 0 is no effect and 100 is complete control. A dash (-) response means no test result.

[10] = system: ragweed; assay: Test C preemergence; format: in vivo, Ambrosia elatior; settings: for Ragweed plant response rating: preemergence
Source text: as §2, §3

[11] = system: johnsongrass; assay: Test C preemergence; format: in vivo, Sorghum halepense; settings: for Johnsongrass plant response rating: preemergence
Source text: as §2, §3

[12] = system: lambsquarters; assay: Test C preemergence; format: in vivo, Chenopodium album; settings: for Lambsquarters plant response rating: preemergence
Source text: as §2, §3

[13] = 125 g ai/ha, 0 to 100 scale where 0 is no effect and 100 is complete control
[14] = 500 g ai/ha, 0 to 100 scale, 0 no effect, 100 complete control
[15] = 500 g ai/ha, 0 to 100 scale, 0 no effect, 100 complete control, approx. 10 days
[16] = 31 g ai/ha, 0 to 100 scale, 0 no effect, 100 complete control
[17] = 16 g ai/ha, scale 0 to 100 (0 no effect, 100 complete control)
[18] = 62 g ai/ha, scale 0 (no effect) to 100 (complete control)
[19] = 125 g ai/ha, scale 0 (no effect) to 100 (complete control)
[20] = Preemergence, 31 g ai/ha, scale 0 to 100, 0 no effect, 100 complete control
[21] = 500 g ai/ha, 0 to 100 scale where 0 is no effect and 100 is complete control

FC(F)(F)c1ccn(-c2ccccc2Oc2ncc(Cl)cn2)n1 [Compound 2, 5-chloro-2-[2-[3-(trifluoromethyl)-1H-pyrazol-1-yl]phenoxy]pyrimidine]
pest or weed control at 125 g/ha ([1]; Setaria faberi, post-emergence, 240 h, 125 g ai/ha, 0 to 100 scale where 0 is no effect and 100 is complete control, read-out: Plant response rating, Foxtail, Giant): 10%
pest or weed control at 500 g/ha ([1]; Setaria faberi, post-emergence, 240 h, 500 g ai/ha, 0 to 100 scale, 0 no effect, 100 complete control, read-out: Plant response rating Foxtail, Giant): 80%
pest or weed control at 125 g/ha ([2]; Abutilon theophrasti, pre-emergence, 240 h, 125 g ai/ha, 0 to 100 scale where 0 is no effect and 100 is complete control, read-out: Velvetleaf plant response rating): 30%
pest or weed control at 500 g/ha ([2]; Abutilon theophrasti, pre-emergence, 240 h, 500 g ai/ha, 0 to 100 scale, 0 no effect, 100 complete control, approx. 10 days, read-out: Velvetleaf plant response rating): 70%
pest or weed control at 125 g/ha ([3]; Amaranthus retroflexus, pre-emergence, 240 h, 125 g ai/ha, 0 to 100 scale where 0 is no effect and 100 is complete control, read-out: Pigweed plant response rating): 90%
pest or weed control at 500 g/ha ([3]; Amaranthus retroflexus, pre-emergence, 240 h, 500 g ai/ha, 0 to 100 scale, 0 no effect, 100 complete control, approx. 10 days, read-out: Pigweed plant response rating): 100%
pest or weed control at 125 g/ha ([4]; Ipomoea, post-emergence, 240 h, 125 g ai/ha, 0 to 100 scale where 0 is no effect and 100 is complete control, read-out: Plant response rating, Morningglory): 30%
pest or weed control at 500 g/ha ([4]; Ipomoea, post-emergence, 240 h, 500 g ai/ha, 0 to 100 scale, 0 no effect, 100 complete control, read-out: Plant response rating Morningglory): 70%
pest or weed control at 125 g/ha ([5]; Digitaria sanguinalis, post-emergence, 240 h, 125 g ai/ha, 0 to 100 scale where 0 is no effect and 100 is complete control, read-out: Plant response rating, Crabgrass, Large): 20%
pest or weed control at 500 g/ha ([5]; Digitaria sanguinalis, post-emergence, 240 h, 500 g ai/ha, 0 to 100 scale, 0 no effect, 100 complete control, read-out: Plant response rating Crabgrass, Large): 60%
Corn plant response rating (crop injury, 0 = no effect, 100 = complete kill) at 125 g/ha ([6]; Zea mays, post-emergence, 240 h, 125 g ai/ha, 0 to 100 scale where 0 is no effect and 100 is complete control): 0%
plant injury at 500 g/ha ([6]; Zea mays, post-emergence, 240 h, 500 g ai/ha, 0 to 100 scale, 0 no effect, 100 complete control, read-out: Plant response rating Corn): 40%
pest or weed control at 125 g/ha ([7]; Echinochloa crus-galli, pre-emergence, 240 h, 125 g ai/ha, 0 to 100 scale where 0 is no effect and 100 is complete control, read-out: Barnyardgrass plant response rating): 30%
pest or weed control at 500 g/ha ([7]; Echinochloa crus-galli, pre-emergence, 240 h, 500 g ai/ha, 0 to 100 scale, 0 no effect, 100 complete control, approx. 10 days, read-out: Barnyardgrass plant response rating): 90%
pest or weed control at 125 g/ha ([8]; Amaranthus retroflexus, post-emergence, 125 g ai/ha, 0 to 100 scale where 0 is no effect and 100 is complete control, read-out: Plant response rating, Pigweed): 60%
pest or weed control at 500 g/ha ([8]; Amaranthus retroflexus, post-emergence, 240 h, 500 g ai/ha, 0 to 100 scale, 0 no effect, 100 complete control, read-out: Plant response rating Pigweed): 100%

Clc1cnc(Oc2ccccc2-n2cc(Cl)cn2)nc1 [Compound 3]
Plant response rating, Foxtail, Giant [1, 13]: 30
Plant response rating, Foxtail, Giant [1, 14]: 90
Velvetleaf plant response rating [2, 13]: 70
Velvetleaf plant response rating [2, 15]: 90
Pigweed plant response rating [3, 13]: 90
Pigweed plant response rating [3, 15]: 100
Plant response rating, Morningglory [4, 13]: 10
Plant response rating, Morningglory [4, 14]: 70
Plant response rating, Crabgrass, Large [5, 13]: 10
Plant response rating, Crabgrass, Large [5, 14]: 80
Plant response rating, Corn [6, 13]: 0
Plant response rating, Corn [6, 14]: 40
Barnyardgrass plant response rating [7, 13]: 60
Barnyardgrass plant response rating [7, 15]: 100
Plant response rating, Pigweed [8, 13]: 90
Plant response rating, Pigweed [8, 14]: 100

FCc1cccc(Oc2ncc(F)cn2)c1-n1cc(C(F)(F)F)cn1 [Compound 118]
Plant response rating, Foxtail, Giant [1, 16]: 30
Plant response rating, Foxtail, Giant [1, 13]: 80
Pigweed plant response rating (0 to 100 scale) ([3]; 31 g ai/ha): 100
Plant response rating, Pigweed [3, 13]: 100
Crabgrass, Large plant response rating [9, 17]: 30
Crabgrass, Large plant response rating [9, 18]: 85
Crabgrass, Large plant response rating [9, 19]: 100
Plant response rating, Crabgrass, Large [9]: 80
Plant response rating, Corn [6, 16]: 10
Plant response rating, Corn [6, 13]: 50
Ragweed plant response rating [10, 17]: 70
Ragweed plant response rating [10, 18]: 100
Ragweed plant response rating [10, 19]: 100
Plant response rating, Ragweed [10, 20]: 100
Barnyardgrass plant response rating (0 to 100 scale) ([7]; 31 g ai/ha): 50
Plant response rating, Barnyardgrass [7, 13]: 100
Plant response rating, Pigweed [8, 16]: 70
Johnsongrass plant response rating [11, 17]: 0
Johnsongrass plant response rating [11, 18]: 85
Johnsongrass plant response rating [11, 19]: 100
Plant response rating, Johnsongrass [11, 20]: 25
Lambsquarters plant response rating [12, 17]: 100
Lambsquarters plant response rating [12, 18]: 100
Lambsquarters plant response rating [12, 19]: 100
Plant response rating, Lambsquarters [12, 20]: 100

COc1cnn(-c2c(C#N)cccc2Oc2ncc(Cl)cn2)c1 [Compound 137]
Foxtail, Giant plant response rating [1, 13]: 70
Plant response rating, Foxtail, Giant [1, 21]: 100
Plant response rating, Pigweed [3, 13]: 90
Pigweed plant response rating [3, 21]: 100
Crabgrass, Large plant response rating [9, 17]: 10
Crabgrass, Large plant response rating [9, 18]: 98
Crabgrass, Large plant response rating [9, 19]: 100
Plant response rating, Crabgrass, Large [9]: 70
Corn plant response rating [6, 13]: 30
Plant response rating, Corn [6, 21]: 80
Ragweed plant response rating [10, 17]: 45
Ragweed plant response rating [10, 18]: 80
Ragweed plant response rating [10, 19]: 95
Plant response rating, Barnyardgrass [7, 13]: 20
Barnyardgrass plant response rating [7, 21]: 100
Pigweed plant response rating [8, 13]: 70
Plant response rating, Pigweed [8, 21]: 100
Johnsongrass plant response rating [11, 17]: 0
Johnsongrass plant response rating [11, 18]: 5
Johnsongrass plant response rating [11, 19]: 45
Lambsquarters plant response rating [12, 17]: 100
Lambsquarters plant response rating [12, 18]: 100
Lambsquarters plant response rating [12, 19]: 100
